# Reference: patent US20100197797A1 (priority 2009, published 2010)
# Key:
# [1] = Drug interaction studies in healthy adult subjects; type: in vivo, human
# Protocol: The drug interaction studies described below were conducted in healthy adult subjects.
# healthy subjects [2] = experiment: Placebo-controlled clinical pharmacology study, blood pressure at supratherapeutic doses; type: in vivo, human; conditions: 300 mg twice daily, 12 hour steady state dosing interval
# Human pharmacokinetics = conditions: in vivo
# Protocol: The pharmacokinetic parameters described herein include area under the plasma concentration-time curve (AUC0-t and AUC0-∞), maximum plasma concentration (Cmax), time of maximum plasma concentration (Tmax) and terminal elimination half-life (T1/2). The time of maximum concentration, Tmax, is determined as the time corresponding to Cmax. Area under the plasma concentration-time curve up to the time corresponding to the last measurable concentration (AUC0-t) is calculated by numerical integration using the linear trapezoidal rule as follows: […]
# healthy subjects [3] = experiment: QTcF interval study, placebo- and positive-controlled; type: in vivo, human; conditions: 600 mg/day
# From the text: After baseline and placebo adjustment, the maximum mean QTcF change was 8 ms (2-sided 90% CI, 3-12 ms).
# Solubility = type: physicochemical
structure (smiles),measurement,setting,value
"CCN(CC)C(=O)C1(c2ccccc2)CC1CN.Cl (racemic) [milnacipran hydrochloride, (±)-[1R(S),2S(R)]-2-(aminomethyl)-N,N-diethyl-1-phenylcyclopropanecarboxamide hydrochloride]",pharmacokinetic interaction with digoxin,"[1]; 200 mg/day and digoxin 0.2 mg/day Lanoxicaps, multiple-dose",no pharmacokinetic interaction
same,change in pharmacokinetics of carbamazepine or its epoxide metabolite,[1]; co-administration with milnacipran hydrochloride,No changes were observed
same,adverse events after switching from clomipramine,"[1]; human, in vivo",an increase in euphoria and postural hypotension
same,hemodynamic adverse effects in combination with digoxin,[1]; intravenously administered digoxin (1 mg),Postural hypotension and tachycardia have been reported
same,effect on pharmacokinetics of lithium,"[1]; multiple doses, 100 mg/day",did not affect
same,pharmacokinetic interaction with lorazepam,[1]; single dose 50 mg and lorazepam 1.5 mg,no pharmacokinetic interaction
same,mean increase in supine diastolic blood pressure,healthy subjects [2],up to 11.5 mm Hg
same,mean increase in supine systolic blood pressure,healthy subjects [2],up to 10.0 mm Hg
same,effect of food on absorption,Human pharmacokinetics,not affected by food
same,clinical significance of QTcF increase,healthy subjects [3],not considered to be clinically significant
same,maximum mean QTcF change,"healthy subjects [3]; after baseline and placebo adjustment (2-sided 90% CI, 3-12 ms)",8 ms
same,solubility,Solubility; chloroform,freely soluble
same,solubility,Solubility; diethyl ether,sparingly soluble
same,solubility,Solubility; ethanol,freely soluble
same,solubility,Solubility; methanol,freely soluble
same,solubility,Solubility; methylene chloride,freely soluble
same,solubility,Solubility; water,freely soluble
